Laboratory results from ChEMBL document CHEMBL6127087 (Eur J Med Chem, 2024).
Activity calls are given as the source filed them. No cut-off for these calls is given here.

Tests used:
[1] = molecular target: P2Y purinoceptor 6 (Homo sapiens, UniProt Q15077); assay: Antagonist activity at human P2Y6R expressed in CHO cells assessed as inhibition of UDP sodium salt-induced Ca2+ level by FLIPR calcium 6 assay; type: functional, cell-based
[2] = tested on: Mus musculus; assay: Anti-inflammatory activity in LPS-induced male C57BL/6 mouse model of acute […] injury assessed as reduction in infiltration of immune cells by measuring decrease in monocytes count at 2 mg/kg, IG preadministered with compound for 7 days followed by LPS administration and measured after 24 hrs; type: functional, organism-based; settings: time 8.0 day
[3] = tested on: Mus musculus; assay: (§1) Anti-inflammatory activity in LPS-induced male C57BL/6 mouse model of acute […] injury assessed as reduction in IL-6 level in BALF at 2 mg/kg, IG preadministered with compound for 7 days followed by LPS administration and measured after 24 hrs by ELISA; type: functional, organism-based; settings: time 8.0 day
[4] = tested on: Mus musculus; assay: Anti-inflammatory activity in LPS-induced male C57BL/6 mouse model of acute […] injury assessed as reduction in infiltration of immune cells by measuring decrease in lymphocytes count at 2 mg/kg, IG preadministered with compound for 7 days followed by LPS administration and measured after 24 hrs; type: functional, organism-based; settings: time 8.0 day
[5] = tested on: Mus musculus; assay: Anti-inflammatory activity in LPS-induced male C57BL/6 mouse model of acute […] injury assessed as reduction in TNF-alpha level in BALF at 2 mg/kg, IG preadministered with compound for 7 days followed by LPS administration and measured after 24 hrs by ELISA; type: functional, organism-based; settings: time 8.0 day
[6] = tested on: Mus musculus; assay: as §1, with “tissue destruction” for “IL-6 level”, “lung” for “BALF”, “H and E staining based histopathological analysis” for “ELISA”; type: functional, organism-based; settings: time 8.0 day
[7] = tested on: Mus musculus; assay: Anti-inflammatory activity in LPS-induced male C57BL/6 mouse model of acute […] injury assessed as reduction in infiltration of immune cells by measuring decrease in neutrophil count at 2 mg/kg, IG preadministered with compound for 7 days followed by LPS administration and measured after 24 hrs; type: functional, organism-based; settings: time 8.0 day
[8] = tested on: Mus musculus; assay: Anti-inflammatory activity in LPS-induced male C57BL/6 mouse model of acute […] injury assessed as reduction in IL-1beta level in BALF at 2 mg/kg, IG preadministered with compound for 7 days followed by LPS administration and measured after 24 hrs by ELISA; type: functional, organism-based; settings: time 8.0 day
[9] = tested on: Mus musculus; assay: as §1, with “absence of lesion” for “reduction”, “lung parenchyma” for “IL-6 level in BALF”, “H and E staining based histopathological analysis” for “ELISA”; type: functional, organism-based; settings: time 8.0 day
[10] = tested on: Mus musculus; assay: Anti-inflammatory activity in LPS-induced male C57BL/6 mouse model of acute […] injury assessed as reduction in infiltration of immune cells by measuring decrease in WBC count at 2 mg/kg, IG preadministered with compound for 7 days followed by LPS administration and measured after 24 hrs; type: functional, organism-based; settings: time 8.0 day
[11] = tested on: Mus musculus; assay: as §1, with “intact appearance of alveolar structure” for “reduction”, “lung” for “IL-6 level in BALF”, “H and E staining based histopathological analysis” for “ELISA”; type: functional, organism-based; settings: time 8.0 day
[12] = tested on: Mus musculus; assay: as §1, with “inflammatory infiltration” for “IL-6 level”, “lung” for “BALF”, “H and E staining based histopathological analysis” for “ELISA”; type: functional, organism-based; settings: time 8.0 day
[13] = tested on: Mus musculus; assay: as §1, with “alveolar septa thickening” for “IL-6 level”, “lung” for “BALF”, “H and E staining based histopathological analysis” for “ELISA”; type: functional, organism-based; settings: time 8.0 day
[14] = tested on: Mus musculus; assay: as §1, with “hyperemia of pulmonary alveolar septa” for “IL-6 level”, “lung” for “BALF”, “H and E staining based histopathological analysis” for “ELISA”; type: functional, organism-based; settings: time 8.0 day
[15] = tested on: Mus musculus; assay: as §1, with “interstitial edema” for “IL-6 level”, “lung” for “BALF”, “H and E staining based histopathological analysis” for “ELISA”; type: functional, organism-based; settings: time 8.0 day
[16] = molecular target: P2Y purinoceptor 4 (Homo sapiens, UniProt P51582); assay: Antagonist activity at human P2Y4R stably expressed in HEK293 cells assessed as inhibition of UTP-induced IP3 accumulation preincubated with compound for 30 mins followed by UTP addition by ELISA
P2Y purinoceptor 4, sequence (P51582 whole entry): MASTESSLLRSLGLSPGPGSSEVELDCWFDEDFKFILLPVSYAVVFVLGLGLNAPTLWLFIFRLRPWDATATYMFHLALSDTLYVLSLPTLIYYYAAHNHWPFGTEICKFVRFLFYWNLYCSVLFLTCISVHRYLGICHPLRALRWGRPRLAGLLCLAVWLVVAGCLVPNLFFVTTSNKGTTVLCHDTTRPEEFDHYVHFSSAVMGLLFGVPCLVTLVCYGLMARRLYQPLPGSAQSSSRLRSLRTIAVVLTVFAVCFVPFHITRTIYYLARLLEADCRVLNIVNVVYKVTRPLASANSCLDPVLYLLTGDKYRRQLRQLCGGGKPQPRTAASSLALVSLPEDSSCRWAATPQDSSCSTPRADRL

[17] = molecular target: P2Y purinoceptor 12 (Homo sapiens, UniProt Q9H244); assay: Antagonist activity at human P2Y12R stably expressed in HEK293 cells assessed as inhibition of MeSADP-induced cAMP accumulation preincubated with compound for 30 mins followed by MeSADP addition by cAMP-GloTM assay; type: functional, cell-based
P2Y purinoceptor 12, sequence (Q9H244 whole entry): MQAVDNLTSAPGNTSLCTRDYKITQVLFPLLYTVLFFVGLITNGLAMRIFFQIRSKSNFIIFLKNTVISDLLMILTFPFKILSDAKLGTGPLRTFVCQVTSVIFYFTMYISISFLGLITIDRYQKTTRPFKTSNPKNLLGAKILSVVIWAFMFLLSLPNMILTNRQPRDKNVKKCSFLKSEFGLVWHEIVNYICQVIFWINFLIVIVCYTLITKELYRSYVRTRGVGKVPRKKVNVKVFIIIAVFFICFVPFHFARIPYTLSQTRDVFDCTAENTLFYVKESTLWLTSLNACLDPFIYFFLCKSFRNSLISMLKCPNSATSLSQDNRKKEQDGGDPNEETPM

[18] = Cmax in male Sprague-Dawley rat at 20 mg/kg, po measured after 24 hrs by LC-MS/MS analysis; type: ADME, organism-based; settings: in vivo, po, 20 mg/kg, 24 h
[19] = Clearance in male Sprague-Dawley rat at 10 mg/kg, iv measured after 24 hrs by LC-MS/MS analysis; type: ADME, organism-based; settings: in vivo
[20] = AUC (0 to 24 hrs) in male Sprague-Dawley rat at 10 mg/kg, iv measured after 24 hrs by LC-MS/MS analysis; type: ADME, organism-based; settings: in vivo
[21] = Tmax in male Sprague-Dawley rat at 10 mg/kg, iv measured after 24 hrs by LC-MS/MS analysis; type: ADME, organism-based; settings: in vivo, iv, 10 mg/kg, 24 h
[22] = Tmax in male Sprague-Dawley rat at 20 mg/kg, po measured after 24 hrs by LC-MS/MS analysis; type: ADME, organism-based; settings: in vivo, po, 20 mg/kg, 24 h
[23] = Cmax in male Sprague-Dawley rat at 10 mg/kg, iv measured after 24 hrs by LC-MS/MS analysis; type: ADME, organism-based; settings: in vivo, iv, 10 mg/kg, 24 h
[24] = Half-life in male Sprague-Dawley rat at 20 mg/kg, po measured after 24 hrs by LC-MS/MS analysis; type: ADME, organism-based; settings: in vivo, po, 20 mg/kg, 24 h
[25] = Clearance in male Sprague-Dawley rat at 20 mg/kg, po measured after 24 hrs by LC-MS/MS analysis; type: ADME, organism-based; settings: in vivo
[26] = Oral bioavailability in male Sprague-Dawley rat at 20 mg/kg measured after 24 hrs by LC-MS/MS analysis; type: ADME, organism-based; settings: in vivo, po, 20 mg/kg, 24 h
[27] = Half-life in male Sprague-Dawley rat at 10 mg/kg, iv measured after 24 hrs by LC-MS/MS analysis; type: ADME, organism-based; settings: in vivo, iv, 10 mg/kg, 24 h
[28] = AUC (0 to 24 hrs) in male Sprague-Dawley rat at 20 mg/kg, po measured after 24 hrs by LC-MS/MS analysis; type: ADME, organism-based; settings: in vivo, po, 20 mg/kg, 24 h

P2Y purinoceptor 6, sequence (Q15077 whole entry): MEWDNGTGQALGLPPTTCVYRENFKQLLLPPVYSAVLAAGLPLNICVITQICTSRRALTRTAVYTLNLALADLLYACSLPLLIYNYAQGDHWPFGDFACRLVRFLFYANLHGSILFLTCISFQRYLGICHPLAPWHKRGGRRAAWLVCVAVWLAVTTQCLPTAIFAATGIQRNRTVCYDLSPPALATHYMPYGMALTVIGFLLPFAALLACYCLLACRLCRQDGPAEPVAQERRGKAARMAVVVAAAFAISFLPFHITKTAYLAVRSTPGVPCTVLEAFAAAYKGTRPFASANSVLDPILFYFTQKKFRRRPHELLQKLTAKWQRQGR

`Cc1cccc2cc(C3CC(c4ccc[nH]4)=NN3C(=O)CCC(=O)O)c(Cl)nc12` (stereo unspecified) showed an IC50 [1] of 53.7 nM.

`Cc1ccc(C2=NN(C(=O)CCC(=O)O)C(c3cc4ccc(C)cc4nc3Cl)C2)cc1` (stereo unspecified) showed an IC50 [1] of 84.6 nM.

`COc1ccc(C2=NN(C(=O)CCC(=O)O)C(c3cc4ccc(C)cc4nc3Cl)C2)cc1` (stereo unspecified) showed an IC50 [1] of 106 nM.

`Cc1ccc2cc(C3CC(c4ccccc4F)=NN3C(=O)CCC(=O)O)c(Cl)nc2c1` (stereo unspecified) gave an IC50 [1] greater than 500 nM.

In the case of `O=C(O)CCC(=O)N1N=C(c2ccco2)CC1c1cc2ccc(F)cc2nc1Cl` (stereo unspecified), the IC50 [1] is reported as 210 nM.

`O=C(O)CCC(=O)N1N=C(c2ccco2)CC1c1cc2ccccc2nc1Cl` (stereo unspecified) gave an IC50 [1] of 186 nM.

In the case of `Cc1ccc2cc(C3CC(c4ccccc4)=NN3C(=O)CCC(=O)O)c(Cl)nc2c1` (stereo unspecified), the IC50 [1] is reported as 54.6 nM.

Compound `Cc1ccc2cc(C3CC(c4cccs4)=NN3C(=O)CCC(=O)O)c(Cl)nc2c1` (stereo unspecified) has an IC50 [1] of 324 nM.

For `Cc1ccc2cc(C3CC(c4cccc(C(F)(F)F)c4)=NN3C(=O)CCC(=O)O)c(Cl)nc2c1` (stereo unspecified), the IC50 [1] was greater than 500 nM.

For `Cc1ccc2cc(C3CC(c4ccc[nH]4)=NN3C(=O)CCC(=O)O)c(Cl)nc2c1` (stereo unspecified), the IC50 [1] was 29.6 nM.

With `Cc1cccc(C2=NN(C(=O)CCC(=O)O)C(c3cc4ccc(C)cc4nc3Cl)C2)c1` (stereo unspecified) the IC50 [1] was 125 nM.

`Cc1ccc2cc(C3CC(c4ccc5ccccc5c4)=NN3C(=O)CCC(=O)O)c(Cl)nc2c1` (stereo unspecified) gave an IC50 [1] greater than 500 nM.

In the case of `Cc1ccc2nc(Cl)c(C3CC(c4ccccc4)=NN3C(=O)CCC(=O)O)cc2c1` (stereo unspecified), the IC50 [1] is reported as 106 nM.

In the case of `Cc1ccc2cc(C3CC(c4ccco4)=NN3C(=O)CCC(=O)O)c(Cl)nc2c1` (stereo unspecified), the IC50 [1] is reported as 26.5 nM.

`O=C(O)CCC(=O)N1N=C(c2ccc[nH]2)CC1c1cc2ccc(F)cc2nc1Cl` (stereo unspecified) showed an IC50 [1] of 421 nM.

For `COc1cccc(C2=NN(C(=O)CCC(=O)O)C(c3cc4ccc(C)cc4nc3Cl)C2)c1` (stereo unspecified), the IC50 [1] was 77.5 nM.

For `C[C@@H]1C[C@H]2[C@@H]3CCC4=CC(=O)C=C[C@]4(C)[C@@]3(F)[C@@H](O)C[C@]2(C)[C@@]1(O)C(=O)CO`, the Activity [2] was “Active”, the Activity [3] was “Active” and the Activity [4] was “Active”. For the same compound, the Activity [5] was “Active”, the Activity [6] was “Active” and the Activity [7] was “Active”. For the same compound, the Activity [8] was “Active”, the Activity [9] was “Active” and the Activity [10] was “Active”. For the same compound, the Activity [11] was “Active”, the Activity [12] was “Active” and the Activity [13] was “Active”. The Activity [14] was “Active” and the Activity [15] was “Active”.

In the case of `O=C(O)CCCC(=O)N1N=C(c2ccc[nH]2)CC1c1cnc2ccccc2c1` (stereo unspecified), the IC50 [1] is reported as 200 nM.

For `O=C(O)CCC(=O)N1N=C(c2ccccc2)CC1c1cc2ccc(F)cc2nc1Cl` (stereo unspecified), the IC50 [1] was 187 nM.

For `Cc1cccc2cc(C3CC(c4ccccc4)=NN3C(=O)CCC(=O)O)c(Cl)nc12` (stereo unspecified), the IC50 [1] was 41.5 nM.

Compound `O=C(C1CC1)N1CCc2cc(Br)c(S(=O)(=O)Nc3ccc(Cl)c(C(F)(F)F)c3)cc21` has an IC50 [16] of 12.5 µM.

With `O=C(O)CCC(=O)N1N=C(c2ccccc2)CC1c1cnc2ccccc2c1` (stereo unspecified) the IC50 [1] was 39.8 nM.

For `Cc1ccc2nc(Cl)c(C3CC(c4ccc[nH]4)=NN3C(=O)CCC(=O)O)cc2c1` (stereo unspecified), the IC50 [1] was 66.8 nM.

With `Cc1ccc2cc(C3CC(c4c[nH]c5ccccc45)=NN3C(=O)CCC(=O)O)c(Cl)nc2c1` (stereo unspecified) the IC50 [1] was 148 nM.

`Cc1ccc2cc(C3CC(c4ccc(O)cc4)=NN3C(=O)CCC(=O)O)c(Cl)nc2c1` (stereo unspecified) gave an IC50 [1] greater than 500 nM.

Work on `O=C(O)/C=C\C(=O)N1N=C(c2ccc[nH]2)CC1c1cnc2ccccc2c1` (stereo unspecified) yielded an IC50 [1] of 386 nM.

With `O=C(O)CCC(=O)N1N=C(c2ccc[nH]2)CC1c1cc2ccccc2nc1Cl` (stereo unspecified) the IC50 [1] was 249 nM.

For `O=C(O)CCC(=O)N1N=C(c2ccco2)CC1c1cnc2ccccc2c1` (stereo unspecified), the IC50 [1] was 26.7 nM.

`Cc1ccc2cc(C3CC(c4cccnc4)=NN3C(=O)CCC(=O)O)c(Cl)nc2c1` (stereo unspecified) gave an IC50 [1] of 279 nM.

For `Cc1ccc2nc(Cl)c(C3CC(c4ccco4)=NN3C(=O)CCC(=O)O)cc2c1` (stereo unspecified), the IC50 [1] was 52.8 nM.

Work on `Cc1ccc2cc(C3CC(c4ccc(C(C)(C)C)cc4)=NN3C(=O)CCC(=O)O)c(Cl)nc2c1` (stereo unspecified) yielded an IC50 [1] of 69.4 nM.

With `CCCSc1nc(N[C@@H]2C[C@H]2c2ccc(F)c(F)c2)c2nnn([C@@H]3C[C@H](OCCO)[C@@H](O)[C@H]3O)c2n1` [TICAGRELOR] the IC50 [17] was 1220 nM.

`Cc1ccc2cc(C3CC(c4ccco4)=NN3C(=O)C=CC(=O)O)c(Cl)nc2c1` (stereo unspecified) gave an IC50 [1] of 291 nM.

For `Cc1ccc2cc(C3CC(c4ccc(-c5ccccc5)cc4)=NN3C(=O)CCC(=O)O)c(Cl)nc2c1` (stereo unspecified), the Cmax [18] was 1211 ng/mL, the clearance [19] was 13.5 mL/min/kg and the AUC [20] was 1854 µg·h/L. It also gave a Tmax [21] of 9 min, a Tmax [22] of 14 min and an IC50 [1] of 168 nM. It also gave a Cmax [23] of 864 ng/mL, a t1/2 [24] of 12 min and a CL/F [25] of 20.1 mL/min/kg. For the same compound, the F [26] was 16%, the t1/2 [27] was 6 min and the AUC [28] was 2356 µg·h/L.

For `Cc1ccc2cc(C3CC(c4ccco4)=NN3C(=O)CCCC(=O)O)c(Cl)nc2c1` (stereo unspecified), the IC50 [1] was greater than 500 nM.

For `Cc1cccc2cc(C3CC(c4ccco4)=NN3C(=O)CCC(=O)O)c(Cl)nc12` (stereo unspecified), the IC50 [1] was 34.6 nM.

For `O=C(O)CCC(=O)N1N=C(c2ccccc2)CC1c1cc2ccccc2nc1Cl` (stereo unspecified), the IC50 [1] was 274 nM.
